This is an account of results in patent US11291640B2, “Endoxifen for the treatment of bipolar I disorder” (Jina Pharmaceuticals, Inc., priority 2020, dated 2022).

Structures can show the parent of a compound that is named as a salt.

In test [1] the test system is patients of bipolar I disorders. The experiment in a line: Clinical study, total YMRS score at each visit. The class given is in vivo. The conditions noted are these: day 21 (EOT); patient with bipolar I disorders. How it is done: (§1) Clinical study of an enteric coated tablet comprising endoxifen citrate formulation was carried out by administering to the patient doses of 2 mg to 16 mg of endoxifen citrate in an enteric coated tablet once per day for at least 21 days according to the present application.
(§2) The clinical study was a multicenter, randomized, double-blind, double-dummy, active controlled, parallel study to assess the efficacy and safety of endoxifen enteric coated tablet 8 mg and divalproex sodium extended release tablet 1000 mg in patients of bipolar I disorders.
(§3) Total 228 patients were enrolled in the study. All 228 patients were qualified for safety and mITT population and 213 patients were qualified for PP population.

Test [2] has the same test system. The experiment in a line: Clinical study, MADRS score at each visit. It counts as in vivo. The conditions noted are these: day 21 (EOT); patient with bipolar I disorders. The method, then: as §1, §2, §3
Test [3] has the same test system. The experiment in a line: Clinical study, response time, remission time and therapeutic dose monitoring. It counts as in vivo. The conditions noted are these: from table 1 and 2. How it is done: The term “response time” means an early indicator of treatment efficacy and it is not more than 2 days of treatment according to the embodiments described herein.
The term “remission time” refers to an absence or minimal symptoms of both mania and depression, which is not more than 4 days of treatment according to the embodiments described herein. Remission is the target of acute treatment.
as §1, §2

Another test deals with PKC. The settings on record: cited from earlier work.

Take `CC/C(=C(\c1ccc(O)cc1)c1ccc(OCCNC)cc1)c1ccccc1` [Endoxifen, (Z)-1-(4-Hydroxyphenyl)-1-{4-[2-(monomethylamino)ethoxy]phenyl}-2-pheny 1-1-butene citrate]: the “improvement in the YMRS score” value in test [1] was “significant and sustained improvements”. Further, in test [2], the “improvement in the MADRS score” value is “significant and sustained improvements”. Besides, in test [3], the “early response time of the treatment” value is on record as “at least 2 days” and the “remission time of treatment” value is “not more than 4 days”. Further, the “potency in inhibiting the PKC activity compared to tamoxifen” value in the test on PKC was “four-fold higher potency”.
